Results: article PMC11770821, “Pharmacokinetics and pharmacodynamics of an innovative psychedelic N,N-dimethyltryptamine/harmine formulation in healthy participants: a randomized controlled trial” (International Journal of Neuropsychopharmacology, 2025)

Key:
[1] = Plasma pharmacokinetics of DMT, harmine and their metabolites (non-compartmental analysis)
Procedure: (§1) The study was conducted as a within-subject, double-blind, randomized placebo-controlled trial. Randomization was performed by an independent individual using a computer-generated random number sequence. All participants underwent 3 randomized drug treatments on separate study days, with an intervening washout period of at least 2 weeks: (1) DMT/HAR: harmine hydrochloride (HCl; 100 mg; buccal orodispersible tablet; ODT) plus DMT (as hemifumarate; 100 mg; intranasal: 10 mg every 15 minutes over 150 minutes), (2) HAR/PLA: harmine (100 mg, buccal ODT) plus placebo nasal spray (NaCl; at same dosing intervals), and (3) PLA/PLA: placebo buccal ODT plus placebo nasal spray. In all conditions, buccal tablets were premedicated for 30 minutes. Food or water intake was not allowed 2 hours before drug administration.
(§2) Thirty minutes following buccal premedication with harmine HCl (100 mg) or placebo, the intranasal repeated-intermittent administration of DMT or placebo was initiated. Volunteers received up to 100 mg DMT in 10 mg dosing steps each 15 minutes (2 × 2 puffs per nostril) over a period of 150 minutes (except for a 30-minute break between 60 and 90 minutes due to a behavioral task). […] Volunteers could adjust each dose (0, 5, 10 mg) based on tolerance, with encouragement to follow the regimen if no adverse effects (AEs) occurred. Thus, volunteers were given the chance to control the psychedelic strength of the experience to enhance safety and tolerability.
(§3) Blood samples were collected from the left or right antecubital vein at −30 (baseline), 0, 30, 60, 90, 120, 150, 180, 195, 210, 240, 270, and 300 minutes after first DMT/placebo administration for analysis of blood plasma levels of harmine, DMT, the 3 major DMT metabolites 3-IAA, DMT-N-oxide, and NMT and the major harmine metabolite harmol. While DMT administration was ongoing, blood drawing was always performed right before DMT administration (time point -1 minute). The venous catheter was connected to a 100 mm Heidelberger plastic tube extension to collect blood samples without disturbing the volunteers during their psychedelic experience. The intravenous line was kept patent with a slow drip (10 mL/h) of heparinized saline (1000 IU heparin in 0.9 g NaCl/dL; HEPARIN Bichsel; Bichsel AG). Blood samples were immediately centrifuged for 10 minutes at 2000 RCF. Then, plasma was transferred to Eppendorf tubes, shock-frosted in liquid nitrogen (~ −196 °C) and stored at −80 °C until assay.
(§4) The data were analyzed and visualized with R Studio version 2021.09.2 + 382.[36] PK-PD parameters were computed using the R-package PKNCA.[37] For Cmax, tmax, AUCs (area under the curves), and half-life calculations, non-compartmental analyses were performed.[38] […] Post hoc pairwise comparisons were calculated using paired Wilcoxon signed-rank tests. P-values were adjusted using the Benjamini-Hochberg multiple testing correction method. Pearson or Spearman correlations were performed (as appropriate according to Shapiro-Wilk tests) to analyze associations between DMT plasma levels and subjective effects.
(§5) For the sample preparation 200 µl of plasma were spiked with 50 µl internal standard (IS) mixture (40 ng/ml DMT-d6 and harmine-d3) and 50 µl methanol (MeOH). Proteins were precipitated by adding 400 µl of acetonitrile (ACN). The samples were shaken for 10 minutes and centrifuged for 5 min at 10‘000 rpm. 350 µl of the supernatant was transferred into an auto-sampler vial, evaporated to dryness under a gentle stream of nitrogen at room temperature and reconstituted in 100 µl eluent-mixture (98:2, v/v).

[2] = clinical; settings: male, human, plasma, other: intranasal (DMT), buccal (harmine)
Procedure: as §1, §2, §3, §4, §5

[3] = test system: healthy male volunteers; settings: in vivo
Procedure: (§6) The participants were monitored with regard to AEs throughout the experiment by the study physician, including questionnaire-based assessments (VAS, 0-100 or y/n) of physical and mental discomfort, breathing difficulties, racing heartbeat, chest or abdominal pains, unpleasant body sensations/muscle pain, headache, nausea, vomiting, and fainting at baseline (−105), 0, 30, 60, 120, 240, and 300 minutes after DMT/placebo administration. Vital signs (systolic/diastolic blood pressure [DBP], heart rate, body temperature [BT]) were assessed using a semiautomatic blood pressure and oral temperature recording device throughout the study at baseline (−45), 0, 30, 120, 150, 210, and 270 minutes after the first DMT/placebo administration.

[4] = test system: healthy male volunteers; experiment: Undesired drug effects / adverse events questionnaire (y/n and VAS 0–100); type: in vivo, human
Procedure: as §6

[5] = test system: healthy male volunteers; experiment: Acute subjective drug effects, visual analog scales (VAS 0–100); type: in vivo, human; settings: for subjective ratings of acute drug effects compared to placebo: 100 mg buccal harmine alone vs placebo
Procedure: The detailed dosing scheme is depicted in Figure 1.
The intensity of acute subjective effects was monitored with visual analog scales (VASs, range 0–100) on a touchscreen tablet throughout the study day at baseline (−90), 0, 30, 60, 90, 120, 180, 240, and 300 after the first DMT/placebo administration. At 360 minutes after the first DMT/placebo administration, a phenomenological interview was conducted with participants to further explore acute subjective drug effects. For PK-PD analyses, we included VAS for intensity, liking, disliking, and arousal in the present paper. Further analyses on a set of neurophysiological, psychometric, and phenomenological assessments will be presented in forthcoming manuscripts.

[6] = 0 min after first intranasal DMT/placebo administration
[7] = 60 min after first intranasal DMT/placebo administration
[8] = 120 min after first intranasal DMT/placebo administration
[9] = 180 min after first intranasal DMT/placebo administration
[10] = 240 min after first intranasal DMT/placebo administration
[11] = 300 min after first intranasal DMT/placebo administration
[12] = −105 min (baseline) relative to first intranasal DMT/placebo administration

## C[N+](C)([O-])CCc1c[nH]c2ccccc12 [DMT-N-oxide]
[1]; DMT + harmine condition, plasma elimination half-life, mean (SD)
  t1/2: 1.2 (0.4) h
[1]; DMT + harmine condition, plasma, time zero to infinity, mean (SD)
  AUCinf: 69.2 (22.1) ng × h/mL

## O=C(O)Cc1c[nH]c2ccccc12 [3-IAA, indole-3-acetic acid]
[2]
  AUC: 7580 ng·h/mL
  Cmax: 2910 ng/mL
  Tmax: 4.1 h
[1]; harmine-only (HAR) condition
  plasma levels after harmine administration: decreased

## COc1ccc2c(c1)[nH]c1c(C)nccc12 [Harmine, harmine]
[3]
  change of cardiovascular parameters: no relevant changes
[4]; [6]
  Breathing difficulty, mean intensity [0–100] (SD): 18 (25)
  Breathing difficulty, number of participants reporting: 3
  Chest pain, mean intensity [0–100] (SD): 24 (32)
  Chest pain, number of participants reporting: 2
  Fainting, mean intensity [0–100] (SD): 0 (0)
  Fainting, number of participants reporting: 0
  Head ache, mean intensity [0–100] (SD): 3 (0)
  Head ache, number of participants reporting: 1
  Heart racing, mean intensity [0–100] (SD): 28 (35)
  Heart racing, number of participants reporting: 2
  Muscle ache, mean intensity [0–100] (SD): 9 (7)
  Muscle ache, number of participants reporting: 6
  Nausea, mean intensity [0–100] (SD): 2 (0)
  Nausea, number of participants reporting: 1
  Psychological distress, mean intensity [0–100] (SD): 6 (2)
  Psychological distress, number of participants reporting: 3
  Somatic distress, mean intensity [0–100] (SD): 18 (14)
  Somatic distress, number of participants reporting: 5
  Stomach ache, mean intensity [0–100] (SD): 2 (0)
  Stomach ache, number of participants reporting: 1
  Vomiting, mean intensity [0–100] (SD): 0 (0)
  Vomiting, number of participants reporting: 0
[4]; [7]
  Breathing difficulty, mean intensity [0–100] (SD): 21 (28)
  Breathing difficulty, number of participants reporting: 2
  Chest pain, mean intensity [0–100] (SD): 13 (8)
  Chest pain, number of participants reporting: 2
  Fainting, mean intensity [0–100] (SD): 0 (0)
  Fainting, number of participants reporting: 0
  Head ache, mean intensity [0–100] (SD): 34 (47)
  Head ache, number of participants reporting: 2
  Heart racing, mean intensity [0–100] (SD): 9 (0)
  Heart racing, number of participants reporting: 1
  Muscle ache, mean intensity [0–100] (SD): 22 (0)
  Muscle ache, number of participants reporting: 2
  Nausea, mean intensity [0–100] (SD): 11 (10)
  Nausea, number of participants reporting: 3
  Psychological distress, mean intensity [0–100] (SD): 8 (8)
  Psychological distress, number of participants reporting: 2
  Somatic distress, mean intensity [0–100] (SD): 9 (5)
  Somatic distress, number of participants reporting: 5
  Stomach ache, mean intensity [0–100] (SD): 52 (0)
  Stomach ache, number of participants reporting: 1
  Vomiting, mean intensity [0–100] (SD): 0 (0)
  Vomiting, number of participants reporting: 0
[4]; [8]
  Breathing difficulty, mean intensity [0–100] (SD): 7 (8)
  Breathing difficulty, number of participants reporting: 3
  Chest pain, mean intensity [0–100] (SD): 4 (3)
  Chest pain, number of participants reporting: 3
  Fainting, mean intensity [0–100] (SD): 0 (0)
  Fainting, number of participants reporting: 0
  Head ache, mean intensity [0–100] (SD): 11 (0)
  Head ache, number of participants reporting: 1
  Heart racing, mean intensity [0–100] (SD): 5 (5)
  Heart racing, number of participants reporting: 3
  Muscle ache, mean intensity [0–100] (SD): 10 (9)
  Muscle ache, number of participants reporting: 3
  Nausea, mean intensity [0–100] (SD): 15 (0)
  Nausea, number of participants reporting: 1
  Psychological distress, mean intensity [0–100] (SD): 4 (5)
  Psychological distress, number of participants reporting: 2
  Somatic distress, mean intensity [0–100] (SD): 7 (5)
  Somatic distress, number of participants reporting: 7
  Stomach ache, mean intensity [0–100] (SD): 30 (37)
  Stomach ache, number of participants reporting: 2
  Vomiting, mean intensity [0–100] (SD): 0 (0)
  Vomiting, number of participants reporting: 0
[4]; [9]
  Breathing difficulty, mean intensity [0–100] (SD): 0 (0)
  Breathing difficulty, number of participants reporting: 0
  Chest pain, mean intensity [0–100] (SD): 0 (0)
  Chest pain, number of participants reporting: 0
  Fainting, mean intensity [0–100] (SD): 0 (0)
  Fainting, number of participants reporting: 0
  Head ache, mean intensity [0–100] (SD): 72 (0)
  Head ache, number of participants reporting: 1
  Heart racing, mean intensity [0–100] (SD): 1 (0)
  Heart racing, number of participants reporting: 1
  Muscle ache, mean intensity [0–100] (SD): 16 (14)
  Muscle ache, number of participants reporting: 4
  Nausea, mean intensity [0–100] (SD): 1 (0)
  Nausea, number of participants reporting: 1
  Psychological distress, mean intensity [0–100] (SD): 9 (0)
  Psychological distress, number of participants reporting: 1
  Somatic distress, mean intensity [0–100] (SD): 13 (3)
  Somatic distress, number of participants reporting: 4
  Stomach ache, mean intensity [0–100] (SD): 0 (0)
  Stomach ache, number of participants reporting: 0
  Vomiting, mean intensity [0–100] (SD): 0 (0)
  Vomiting, number of participants reporting: 0
[4]; [10]
  Breathing difficulty, mean intensity [0–100] (SD): 6 (0)
  Breathing difficulty, number of participants reporting: 1
  Chest pain, mean intensity [0–100] (SD): 1 (0)
  Chest pain, number of participants reporting: 1
  Fainting, mean intensity [0–100] (SD): 0 (0)
  Fainting, number of participants reporting: 0
  Head ache, mean intensity [0–100] (SD): 27 (0)
  Head ache, number of participants reporting: 1
  Heart racing, mean intensity [0–100] (SD): 3 (0)
  Heart racing, number of participants reporting: 1
  Muscle ache, mean intensity [0–100] (SD): 21 (5)
  Muscle ache, number of participants reporting: 3
  Nausea, mean intensity [0–100] (SD): 2 (0)
  Nausea, number of participants reporting: 1
  Psychological distress, mean intensity [0–100] (SD): 3 (1)
  Psychological distress, number of participants reporting: 2
  Somatic distress, mean intensity [0–100] (SD): 16 (12)
  Somatic distress, number of participants reporting: 4
  Stomach ache, mean intensity [0–100] (SD): 32 (44)
  Stomach ache, number of participants reporting: 2
  Vomiting, mean intensity [0–100] (SD): 0 (0)
  Vomiting, number of participants reporting: 0
[4]; [11]
  Breathing difficulty, mean intensity [0–100] (SD): 3 (0)
  Breathing difficulty, number of participants reporting: 1
  Chest pain, mean intensity [0–100] (SD): 0 (0)
  Chest pain, number of participants reporting: 0
  Fainting, mean intensity [0–100] (SD): 0 (0)
  Fainting, number of participants reporting: 0
  Head ache, mean intensity [0–100] (SD): 0 (0)
  Head ache, number of participants reporting: 0
  Heart racing, mean intensity [0–100] (SD): 49 (0)
  Heart racing, number of participants reporting: 1
  Muscle ache, mean intensity [0–100] (SD): 9 (11)
  Muscle ache, number of participants reporting: 2
  Nausea, mean intensity [0–100] (SD): 2 (1)
  Nausea, number of participants reporting: 2
  Psychological distress, mean intensity [0–100] (SD): 70 (0)
  Psychological distress, number of participants reporting: 1
  Somatic distress, mean intensity [0–100] (SD): 12 (5)
  Somatic distress, number of participants reporting: 3
  Stomach ache, mean intensity [0–100] (SD): 2 (0)
  Stomach ache, number of participants reporting: 1
  Vomiting, mean intensity [0–100] (SD): 0 (0)
  Vomiting, number of participants reporting: 0
[4]; in vivo
  overall safety and tolerability of drug-induced AEs: mild and well tolerated
[4]; [12]
  Breathing difficulty, mean intensity [0–100] (SD): 12 (15)
  Breathing difficulty, number of participants reporting: 2
  Chest pain, mean intensity [0–100] (SD): 0 (0)
  Chest pain, number of participants reporting: 0
  Fainting, mean intensity [0–100] (SD): 0 (0)
  Fainting, number of participants reporting: 0
  Head ache, mean intensity [0–100] (SD): 8 (7)
  Head ache, number of participants reporting: 3
  Heart racing, mean intensity [0–100] (SD): 9 (6)
  Heart racing, number of participants reporting: 3
  Muscle ache, mean intensity [0–100] (SD): 11 (9)
  Muscle ache, number of participants reporting: 5
  Nausea, mean intensity [0–100] (SD): 6 (0)
  Nausea, number of participants reporting: 1
  Psychological distress, mean intensity [0–100] (SD): 13 (8)
  Psychological distress, number of participants reporting: 4
  Somatic distress, mean intensity [0–100] (SD): 17 (12)
  Somatic distress, number of participants reporting: 7
  Stomach ache, mean intensity [0–100] (SD): 12 (15)
  Stomach ache, number of participants reporting: 2
  Vomiting, mean intensity [0–100] (SD): 0 (0)
  Vomiting, number of participants reporting: 0
[5]
  subjective ratings of acute drug effects compared to placebo: no statistical differences
[5]; listed as HAR
  subjective ratings of acute drug effects compared to placebo: no significant difference
[5]; at 90 minutes (max. intensity ratings)
  effect size, intensity ratings, contrast vs PLA: 0.133
[5]; at 240 minutes
  effect size, intensity ratings, contrast vs PLA: 0.127
[5]; mean (SD)
  peak effects of arousal, VAS: 9.9 % of the maximal possible scor
  peak effects of disliking, VAS: 7.8 % of the maximal possible scor
  peak effects of liking, VAS: 20.0 % of the maximal possible scor
  peak intensity, VAS: 7.6 % of the maximal possible scor

## CN(C)CCc1c[nH]c2ccccc12 [DMT, N,N-dimethyltryptamine]
[1]; DMT + harmine condition
  time blood plasma levels remained constant after the last intranasal DMT dose: 30 min
[1]; male, human, plasma, other: intranasal
  half-life: 0.6 h
[5]; DMT + harmine condition, 95% CI 0.51-0.66
  correlation (r) between subjective intensity ratings and DMT plasma levels: 0.59
[5]; DMT + harmine, after first DMT administration
  duration of psychedelic effects / overall drug action: ≤ 240 min
[5]; DMT co-administered with harmine
  duration of acute drug (psychedelic) effects: 2 to 3 h
